Experimental data published in patent US20220241312A1, “COMPOUNDS FOR TREATING CANCER” (Tems Pharmaceuticals, Inc., priority 2019, published 2022).
Where a name gives a salt, the structure may show the parent alone.

Tests used:
[1] = tested on: liver cancer cell line HepG2; experiment: Cytotoxicity assay (CellTiter Glo), HepG2; type: cell-based; conditions: Homo sapiens, 72 h or 120 h incubation, Compound No. 1 tested as TEA salt
Procedure: (§1) Cytotoxicity of the test compounds were determined for multiple cell lines including gastric cancer cell lines NCI-N-87-luc and MKN45; liver cancer cell lines HepG2, Hep3B, and Huh7; pancreatic cell lines MIAPACA-2 and PANC-1; and colon cancer cell lines HT-29 and HCT-116.
(§2) Test compounds were prepared as 10 mM stock solutions. 5-FU, the control compound, was also prepared as a 10 mM stock solution. 45 μL of stock solution was transferred to a 384 polypropylene plate. The test and control compounds were then serially diluted 3 fold 10 times by transferring 15 μL compound solution into 30 μL DMSO by using TECAN (EVO200) liquid handler. […]
(§3) For each cell line assayed, cells were grown in a flask and then were harvested from the flask into cell culture medium. The cell number was counted and the cells were diluted with cell culture medium to the 2.5*10^4 cells/mL. […]
(§4) The cell culture plates were covered with a lid, placed at room temperature for 30 min without shaking, and transferred into a 37° C. […] On the desired day, cytotoxicity of the compounds was detected using CellTiter Glo. […] 40 μL of CellTiter-Glo reagent was added into each well to be detected (at 1:1 to culture medium). The plates were placed at room temperature for 30 min and then luminescence was detected using an EnSpire plate reader. […]

[2] = tested on: colon cancer cell line HT-29; experiment: Cytotoxicity assay (CellTiter Glo), HT-29; type: cell-based; conditions: Homo sapiens, 72 h or 120 h incubation, Compound No. 1 tested as TEA salt
Procedure: as §1, §2, §3, §4

[3] = tested on: liver cancer cell line Hep3B; experiment: Cytotoxicity assay (CellTiter Glo), Hep3B; type: cell-based; conditions: Homo sapiens, 72 h or 120 h incubation, Compound No. 1 tested as TEA salt
Procedure: as §1, §2, §3, §4

[4] = tested on: colon cancer cell line HCT-116; experiment: Cytotoxicity assay (CellTiter Glo), HCT-116; type: cell-based; conditions: Homo sapiens, 72 h or 120 h incubation, Compound No. 1 tested as TEA salt
Procedure: as §1, §2, §3, §4

[5] = tested on: gastric cancer cell line MKN45; experiment: Cytotoxicity assay (CellTiter Glo), MKN45; type: cell-based; conditions: Homo sapiens, MKN-45, 72 h or 120 h incubation, Compound No. 1 tested as TEA salt
Procedure: as §1, §2, §3, §4

[6] = tested on: liver cancer cell line Huh7; experiment: Cytotoxicity assay (CellTiter Glo), Huh7; type: cell-based; conditions: Homo sapiens, Huh-7, 72 h or 120 h incubation, Compound No. 1 tested as TEA salt
Procedure: as §1, §2, §3, §4

[7] = tested on: pancreatic cell line PANC-1; experiment: Cytotoxicity assay (CellTiter Glo), PANC-1; type: cell-based; conditions: Homo sapiens, 72 h or 120 h incubation, Compound No. 1 tested as TEA salt
Procedure: as §1, §2, §3, §4

[8] = tested on: gastric cancer cell line NCI-N-87-luc; experiment: Cytotoxicity assay (CellTiter Glo), NCI-N-87-luc; type: cell-based; conditions: 72 h or 120 h incubation, Compound No. 1 tested as TEA salt
Procedure: as §1, §2, §3, §4

[9] = tested on: pancreatic cell line MIAPACA-2; experiment: Cytotoxicity assay (CellTiter Glo), MIAPACA-2; type: cell-based; conditions: Homo sapiens, MIA PaCa-2, 72 h or 120 h incubation, Compound No. 1 tested as TEA salt
Procedure: as §1, §2, §3, §4

[10] = target: T1, dihydropyrimidine dehydrogenase (DPD) (Homo sapiens, UniProt Q12882); conditions: background statement; cited from earlier work
T1 sequence (Q12882 4-1025): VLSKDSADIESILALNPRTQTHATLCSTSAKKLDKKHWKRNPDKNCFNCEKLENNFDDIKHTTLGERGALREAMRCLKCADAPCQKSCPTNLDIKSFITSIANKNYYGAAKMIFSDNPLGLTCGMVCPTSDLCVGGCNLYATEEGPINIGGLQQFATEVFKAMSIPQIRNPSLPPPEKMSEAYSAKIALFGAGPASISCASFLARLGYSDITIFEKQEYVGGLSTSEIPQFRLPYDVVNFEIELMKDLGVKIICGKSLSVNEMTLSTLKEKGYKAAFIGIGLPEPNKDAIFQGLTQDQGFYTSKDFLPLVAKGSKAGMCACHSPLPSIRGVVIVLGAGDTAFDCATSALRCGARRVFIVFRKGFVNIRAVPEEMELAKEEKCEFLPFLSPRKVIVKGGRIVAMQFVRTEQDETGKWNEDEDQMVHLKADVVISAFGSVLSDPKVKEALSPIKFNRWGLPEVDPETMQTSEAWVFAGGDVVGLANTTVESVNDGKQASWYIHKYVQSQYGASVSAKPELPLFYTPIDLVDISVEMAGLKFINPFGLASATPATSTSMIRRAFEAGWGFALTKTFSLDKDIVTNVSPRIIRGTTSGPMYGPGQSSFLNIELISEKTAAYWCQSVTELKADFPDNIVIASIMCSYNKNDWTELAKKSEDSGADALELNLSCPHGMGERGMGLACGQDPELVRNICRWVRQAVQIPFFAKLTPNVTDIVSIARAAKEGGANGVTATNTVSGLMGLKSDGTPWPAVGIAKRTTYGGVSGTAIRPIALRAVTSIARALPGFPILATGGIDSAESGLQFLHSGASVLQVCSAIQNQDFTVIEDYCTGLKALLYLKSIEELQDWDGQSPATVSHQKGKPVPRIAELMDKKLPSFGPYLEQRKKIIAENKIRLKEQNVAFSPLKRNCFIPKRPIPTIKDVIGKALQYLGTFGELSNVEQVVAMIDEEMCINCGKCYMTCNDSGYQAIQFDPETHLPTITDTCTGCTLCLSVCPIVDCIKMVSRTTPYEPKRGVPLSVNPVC

SMILES	CC50 [1]	CC50 [2]	CC50 [3]	CC50 [4]	CC50 [5]	CC50 [6]	CC50 [7]	CC50 [8]	CC50 [9]	fraction catabolized by dihydropyrimidine dehydrogenase (DPD) to pharmacodynamically inactive metabolites [10]
O=c1[nH]cc(F)c(=O)[nH]1 [5-FU, 5-Fluorouracil]	1740 nM	14.8 µM	3670 nM	6.79 µM	1680 nM	7.3 µM	8.26 µM	3990 nM	13.1 µM	80-85%
CC(C)OC(=O)OCn1c(=O)c(F)cn([C@H]2C[C@@H]3OP(=O)(O)OC[C@H]3O2)c1=O [Compound No. 1, (4aR,6R,7aS)-6-(5-fluoro-3-(((isopropoxycarbonyl)oxy)methyl)-2,4-dioxo-3,4-dihydropyrimidin-1(2H)-yl)tetrahydro-4H-furo[3,2-d][1,3,2]dioxaphosphinin-2-olate 2-oxide triethylamine salt]	314 nM	0.015 µM	45 nM	0.411 µM	21 nM	0.013 µM	0.706 µM	515 nM	0.06 µM	
